According to ChEMBL document CHEMBL4808170, “Structure-Based Design of Potent and Orally Active Isoindolinone Inhibitors of MDM2-p53 Protein-Protein Interaction” (J Med Chem, 2021):

What was measured:
[1] = Toxicity in CD-1 mouse xenografted human SJSA-1 cells assessed as adverse effect at 50 mg/kg, po single dose for 7 days relative to control; assay type: organism-based; conditions: in vivo, 168 h, time 7 day
[2] = Oral bioavailability in nonhuman primate at 5 mg/kg by HPLC analysis; assay type: ADME, organism-based; conditions: primates, in vivo
[3] = Lipophilicity, logD of compound at pH 7.4 by Chromatography; assay type: physicochemical; conditions: buffer
SJSA-1 [4] = test: Antitumor activity in human SJSA-1 cells […] CD-1 mouse xenograft model assessed as increase in p53 expression in tumor at 50 mg/kg, po single dose measured after 6 hrs by MSD analysis relative to control; assay type: functional
CYP3A4 [5] = molecular target: T1, CYP3A4 (Homo sapiens, UniProt P08684); test: Inhibition of CYP3A4 (unknown origin) using midazolam as substrate in presence of NADPH at 8 uM; assay type: ADME; conditions: probe midazolam
T1 sequence (P08684 whole entry): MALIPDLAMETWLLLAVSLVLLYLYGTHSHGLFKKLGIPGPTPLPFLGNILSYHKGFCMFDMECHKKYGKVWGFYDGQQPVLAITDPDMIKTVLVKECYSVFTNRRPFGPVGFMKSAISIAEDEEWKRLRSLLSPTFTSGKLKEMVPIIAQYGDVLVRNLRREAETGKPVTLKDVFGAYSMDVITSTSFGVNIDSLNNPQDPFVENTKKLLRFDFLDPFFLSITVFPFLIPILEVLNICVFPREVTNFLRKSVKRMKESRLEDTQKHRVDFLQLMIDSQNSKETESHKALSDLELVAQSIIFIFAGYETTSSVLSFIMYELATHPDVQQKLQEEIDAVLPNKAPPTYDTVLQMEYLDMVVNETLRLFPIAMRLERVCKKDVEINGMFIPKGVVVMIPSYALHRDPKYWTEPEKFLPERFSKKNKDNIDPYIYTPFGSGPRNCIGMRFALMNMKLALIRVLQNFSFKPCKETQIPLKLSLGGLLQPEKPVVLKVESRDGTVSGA

[6] = Plasma protein binding in BALB/c mouse incubated for 48 hrs; assay type: ADME, cell-free; conditions: read-out: PPB (converted)
[7] = Antiproliferative activity against human SN40R2 cells derivative of SJSA-1 cells expressing mutant TP53 at 30 uM incubated for 72 hrs by Sulforhodamine B assay; assay type: functional
SJSA-1 [8] = test: Antitumor activity in human SJSA-1 cells […] CD-1 mouse xenograft model assessed as increase in p53 expression in tumor at 50 mg/kg, po single dose measured after 3 hrs by MSD analysis relative to control; assay type: functional
CYP3A4 [9] = molecular target: T1, CYP3A4; test: Inhibition of human CYP3A4 expressed in human supersomes assessed as half life in presence of NADPH at 1 uM using midazolam as substrate measured after 40 mins; assay type: ADME; conditions: supersomes expressing human CYP3A4, probe midazolam
[10] = Toxicity in CD-1 mouse xenografted human SJSA-1 cells assessed as change in body weight at 50 mg/kg, po single dose for 7 days relative to control; assay type: organism-based; conditions: in vivo, 168 h, time 7 day
SJSA-1 [11] = test: Antiproliferative activity against human SJSA-1 cells expressing wild type TP53 incubated for 72 hrs by Sulforhodamine B assay; assay type: functional
SJSA-1 [12] = test: Antitumor activity in human SJSA-1 cells […] CD-1 mouse xenograft model assessed as inhibition of tumor growth at 50 mg/kg, po single dose for 7 days relative to control; assay type: functional; conditions: time 7 day
[13] = Metabolic stability in CD1 mouse liver microsomes assessed as half life at 1 uM; assay type: ADME, Microsome
[14] = Plasma protein binding in human incubated for 48 hrs; assay type: ADME, cell-free; conditions: read-out: PPB (converted)
[15] = Metabolic stability in human liver microsomes assessed as half life at 1 uM; assay type: ADME, Microsome
[16] = Plasma clearance in BALB/c mouse at 5 mg/kg, po by HPLC analysis; assay type: ADME, organism-based
[17] = Oral bioavailability in BALB/c mouse at 5 mg/kg by HPLC analysis; assay type: ADME, organism-based; conditions: in vivo
[18] = In vivo clearance in nonhuman primate at 0.2 mg/kg, iv by HPLC analysis; assay type: ADME, organism-based; conditions: primates
[19] = Inhibition of MDM2/IP3 (unknown origin) protein-protein interaction expressed using TNT T7 coupled reticulocyte lysate system incubated for 90 mins by ELISA

- bioavailability [2]: 31%
- chromatographic logD [3]: 3.8
- inhibition at 8 µM (CYP3A4 [5]): 46%
- fraction unbound at 48 h [6]: 0.094
- half-life at 1 µM (CYP3A4 [9]): 14 min
- GI50 (SJSA-1 [11]): 200 nM
- half-life at 1 µM [13]: 27 min
- fraction unbound at 48 h [14]: 0.086
- half-life at 1 µM [15]: 52 min
- CL/F [16]: 11 mL/min/kg
- bioavailability [17]: 46%
- clearance [18]: 11 mL/min/kg
- IC50 [19]: 3.8 nM
SMILES: [2H]C([2H])(O)C1(C([2H])([2H])O[C@]2(c3ccc(Cl)cc3)c3c(F)cc(C(C)(C)O)cc3C(=O)N2Cc2ccc(C#N)cn2)CC1
- Activity [1]: Non-Toxic
- fold change (FC) (SJSA-1 [4]): 10.3
- Activity [7]: 20%
- fold change (FC) (SJSA-1 [8]): 3.7
- Activity [10]: Non-Toxic
- T/C (SJSA-1 [12]): 21%
